From article PMC6204753, “Non-native autoinducer analogs capable of modulating the SdiA quorum sensing receptor in Salmonella enterica serovar Typhimurium” (Beilstein Journal of Organic Chemistry, 2018)

How the values were obtained:
SdiA [1] = molecular target: T1, SdiA (Salmonella enterica subsp. enterica serovar Typhimurium, UniProt O66040); assay: S. Typhimurium-pJNS25 SdiA reporter, competitive antagonism against 10 nM L-OOHL; format: cell-based; details: for inhibition at 1 µM / Antagonism 1 μM Inhibition (%): 1 μM compound; for inhibition at 1 µM / inhibition at 100 µM / Antagonism 1 μM Inhibition (%) / Antagonism 100 μM Inhibition (%): average ± STD, change in activity from 10 nM 2 (OOHL); for inhibition at 1 µM: read-out: Antagonism 1 μM Inhibition (%); for inhibition at 100 µM / Antagonism 100 μM Inhibition (%): 100 μM compound; for inhibition at 100 µM: read-out: Antagonism 100 μM Inhibition (%)
T1 sequence (O66040 entry or part of it): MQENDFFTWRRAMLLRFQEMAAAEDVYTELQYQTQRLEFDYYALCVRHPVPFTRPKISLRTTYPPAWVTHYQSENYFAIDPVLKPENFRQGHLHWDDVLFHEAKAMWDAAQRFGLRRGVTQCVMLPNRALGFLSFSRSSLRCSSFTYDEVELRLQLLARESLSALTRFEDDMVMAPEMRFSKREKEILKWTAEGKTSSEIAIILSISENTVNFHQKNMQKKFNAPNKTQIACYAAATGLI
Description: (§1) Biological assays for SdiA activity. Cell-based reporter strains that rely on detecting the transcriptional activity of LuxR-type receptors are commonly used to assess the activity of exogenous ligands. We used the S. Typhimurium-pJNS25 reporter strain constructed by Smith and Ahmer and also used by Janssens et al. to examine SdiA activity. This strain naturally produces SdiA and contains a reporter plasmid with the promoter region for srgE fused to the luxABCDE operon of V. fischeri (see Experimental section for details of all strains and plasmids). SdiA activity is thus reported by the production of luciferase and resulting bioluminescence. We also prepared an SdiA reporter in E. coli (JLD271-pJN105SE-pSC11SE) to examine S. Typhimurium SdiA activity in an alternate background and with a different reporter gene output. […] This reporter construct uses an arabinose inducible promoter to produce S. Typhimurium SdiA and the promoter region for srgE fused to lacZ to report SdiA activity. SdiA activity is then measured using standard β-galactosidase assays. In both reporter strains, signal was normalized to the difference between the positive control (10 μM OOHL) and the negative control (1% DMSO; no compound).
(§2) Salmonella SdiA reporter assay. S. Typhimurium-pJNS25 was grown 16–18 h overnight in LB, diluted 1:100 in fresh LB medium, and then incubated for 6 h at 37 °C with shaking at 200 rpm in the presence of compounds (1% DMSO). […] All compounds were screened at 100 μM and 1 μM in triplicate in agonism and antagonism assays. […] Dose–response analyses were performed by preparing dilutions of compounds in DMSO and testing each concentration in the agonism or antagonism assays. Competition dose–response assays (data in Figure 5) were performed in the same manner as the antagonism assays, except instead of OOHL being added to the subculture, the antagonist being tested was added. Non-linear regression curve fits were generated using GraphPad Prism software (version 6) using variable slope (four parameter) dose–response analysis.

SdiA [2] = molecular target: T1, SdiA; assay: S. Typhimurium-pJNS25 SdiA reporter, agonism (luminescence); format: cell-based; details: for EC50: agonism dose–response, read-out: EC50; for Emax: read-out: activation (%)
Description: as §1, §2

[3] = maximal activity (efficacy) from agonism dose–response, 10 μM OOHL = 100%, DMSO = 0%

Structure (SMILES)	inhibition at 1 µM (SdiA [1]) [%]	inhibition at 100 µM (SdiA [1]) [%]	Antagonism 1 μM Inhibition (%) (SdiA [1])	Antagonism 100 μM Inhibition (%) (SdiA [1])	further results
Cc1cccc(CC(=O)N[C@H]2CCOC2=O)c1 [E1]	-6 ± 7	-14 ± 13			EC50 (SdiA [2]): 66.4 nM; Emax (SdiA [2]; [3]): 99%
N#Cc1cccc(CC(=O)N[C@H]2CCOC2=O)c1 [E5]	18 ± 8	-8 ± 4			EC50 (SdiA [2]): 62.2 nM; Emax (SdiA [2]; [3]): 73%
CSc1ccc(CC(=O)N[C@H]2CCOC2=O)cc1 [E6]	25 ± 16	44 ± 13			Emax (SdiA [1]; maximal inhibition, 100% minus lowest % activity in presence of 10 nM L-OOHL (2), read-out: inhibition (%)): 49%; Emax (SdiA [2]; maximal activation of the antagonists (partial agonism), Table 3): 74%
CSc1cccc(CC(=O)N[C@H]2CCOC2=O)c1 [E7]	20 ± 14	12 ± 13			EC50 (SdiA [2]): 26 nM; Emax (SdiA [2]; [3]): 91%
Cc1ccc(OCC(=O)N[C@H]2CCOC2=O)cc1 [E15]	-3 ± 5	-17 ± 7			EC50 (SdiA [2]): 33 nM; Emax (SdiA [2]; [3]): 98%
Cc1cccc(OCC(=O)N[C@H]2CCOC2=O)c1 [E16]	-2 ± 8	-4 ± 5			EC50 (SdiA [2]): 43.3 nM; Emax (SdiA [2]; [3]): 100%
O=C(COc1ccc(I)cc1)N[C@H]1CCOC1=O [E22]	-5 ± 11	-15 ± 8			EC50 (SdiA [2]): 10.4 nM; Emax (SdiA [2]; [3]): 108%
O=C(N[C@H]1CCOC1=O)C1CCCC1 [S4]			27 ± 11	-8 ± 11	
O=C(N[C@H]1CCOC1=O)C1CCCCC1 [S5]			19 ± 4	13 ± 10	
CCCCCCCCCC(=O)CC(=O)N[C@H]1CCOC1=O [compound 1, reference compound]			2 ± 17	15 ± 16	
CCCC(=O)CC(=O)N[C@H]1CCOC1=O [compound 3, reference compound]			6 ± 16	20 ± 2	
CCCCCCC(=O)N[C@H]1CCOC1=O [compound 4, reference compound]			26 ± 4	16 ± 5	
O=C(CC(=O)N[C@H]1CCOC1=O)Cc1ccccc1 [compound 5, reference compound]			23 ± 9	17 ± 3	
O=C(CCCc1ccccc1)N[C@H]1CCOC1=O [compound 6, reference compound]			31 ± 6	21 ± 10	
O=C(Cc1ccc(Br)cc1)N[C@H]1CCOC1=O [compound 7, reference compound]			26 ± 9	21 ± 10	
O=C(CCc1ccc(Br)cc1)N[C@H]1CCOC1=O [compound 8, reference compound]			15 ± 8	4 ± 3	
O=C(CCc1ccc(C(F)(F)F)cc1)N[C@H]1CCOC1=O [compound 9, reference compound]			32 ± 10	11 ± 16	
O=C(CCCOc1ccc(Cl)cc1)N[C@H]1CCOC1=O [compound 10, reference compound]			9 ± 12	5 ± 15	
CCCCCCCCCC(=O)CC(=O)Nc1cccc(OC)c1 [compound 14, reference compound]			22 ± 19	12 ± 8	
CCCCCCCCCC(=O)CC(=O)NC1CCCCC1=O (centres unmarked) [compound 15, reference compound]			16 ± 16	13 ± 8	
CCCCCCCCCC(=O)NC1CCCC1 [compound 17, reference compound]			26 ± 12	28 ± 5	
